Measurements from ChEMBL document CHEMBL5252555, “Antimicrobial Polyketides from the Marine-Derived Fungus Spiromastix sp. SCSIO F190” (J Nat Prod, 2023).
In brackets after ≈: the same amount, converted by molar mass. Activity calls are given as the source filed them. The rule behind the calls is not given here.

Tests used:
[1] = system: Staphylococcus aureus; test: Antibacterial activity against Staphylococcus aureus ATCC 29213 assessed as inhibition of bacterial growth incubated for 18 hrs by broth microdilution method; type: functional
[2] = system: Staphylococcus aureus; test: Antibacterial activity against Staphylococcus aureus 16339 assessed as inhibition of bacterial growth incubated for 18 hrs by broth microdilution method; type: functional
[3] = system: Staphylococcus aureus; test: Antibacterial activity against Staphylococcus aureus 1862 assessed as inhibition of bacterial growth incubated for 18 hrs by broth microdilution method; type: functional
[4] = system: Staphylococcus aureus; test: Antibacterial activity against Staphylococcus aureus 3090 assessed as inhibition of bacterial growth incubated for 18 hrs by broth microdilution method; type: functional
[5] = system: Staphylococcus aureus; test: Antibacterial activity against Staphylococcus aureus 991 assessed as inhibition of bacterial growth incubated for 18 hrs by broth microdilution method; type: functional
[6] = system: Staphylococcus aureus; test: Antibacterial activity against Staphylococcus aureus 669 assessed as inhibition of bacterial growth incubated for 18 hrs by broth microdilution method; type: functional
[7] = system: Staphylococcus aureus; test: Antibacterial activity against Staphylococcus aureus 745324 assessed as inhibition of bacterial growth incubated for 18 hrs by broth microdilution method; type: functional
[8] = system: Staphylococcus aureus; test: Antibacterial activity against Staphylococcus aureus 16162 assessed as inhibition of bacterial growth incubated for 18 hrs by broth microdilution method; type: functional
[9] = system: Enterococcus faecalis; test: Antibacterial activity against Enterococcus faecalis ATCC 29212 assessed as inhibition of bacterial growth incubated for 18 hrs by broth microdilution method; type: functional
[10] = system: Staphylococcus aureus; test: Antibacterial activity against Staphylococcus aureus GDE4P037P assessed as inhibition of bacterial growth incubated for 18 hrs by broth microdilution method; type: functional
[11] = system: Enterococcus faecalis; test: Antibacterial activity against Enterococcus faecalis 36950 assessed as inhibition of bacterial growth incubated for 18 hrs by broth microdilution method; type: functional
[12] = system: Micrococcus luteus; test: Antibacterial activity against Micrococcus luteus ML01 assessed as inhibition of bacterial growth incubated for 18 hrs by broth microdilution method; type: functional
[13] = system: Staphylococcus simulans; test: Antibacterial activity against Staphylococcus simulans AKA1 assessed as inhibition of bacterial growth incubated for 18 hrs by broth microdilution method; type: functional
[14] = system: Enterococcus faecium; test: Antibacterial activity against Enterococcus faecium 36235 assessed as inhibition of bacterial growth incubated for 18 hrs by broth microdilution method; type: functional
[15] = system: Bacillus subtilis; test: Antibacterial activity against Bacillus subtilis BS01 assessed as inhibition of bacterial growth incubated for 18 hrs by broth microdilution method; type: functional
[16] = system: Enterococcus faecium; test: Antibacterial activity against Enterococcus faecium 35682 assessed as inhibition of bacterial growth incubated for 18 hrs by broth microdilution method; type: functional
[17] = system: Enterococcus gallinarum; test: Antibacterial activity against Enterococcus gallinarum 5F52C assessed as inhibition of bacterial growth incubated for 18 hrs by broth microdilution method; type: functional
[18] = system: Enterococcus faecium; test: Antibacterial activity against Enterococcus faecium 36711 assessed as inhibition of bacterial growth incubated for 18 hrs by broth microdilution method; type: functional
[19] = system: Staphylococcus aureus; test: Antibacterial activity against Staphylococcus aureus 718306 assessed as inhibition of bacterial growth incubated for 18 hrs by broth microdilution method; type: functional
[20] = system: Staphylococcus aureus; test: Antibacterial activity against Staphylococcus aureus 6917 assessed as inhibition of bacterial growth incubated for 18 hrs by broth microdilution method; type: functional
[21] = system: Staphylococcus aureus; test: Antibacterial activity against methicillin-resistant Staphylococcus aureus assessed as inhibition of bacterial growth incubated for 18 hrs by broth microdilution method; type: functional
[22] = system: HepG2; test: Cytotoxicity against human HepG2 cells incubated for 48 hrs by CCK-8 assay; type: functional, cell-based
[23] = system: HeLa; test: Cytotoxicity against human HeLa cells incubated for 48 hrs by CCK-8 assay; type: functional, cell-based
[24] = Cytotoxicity against human LX2 cells incubated for 48 hrs by CCK-8 assay; type: toxicity, cell-based; conditions: lx-2, 48 h
[25] = system: RBE; test: Cytotoxicity against human RBE cells incubated for 48 hrs by CCK-8 assay; type: functional, cell-based
[26] = system: HCT-116; test: Cytotoxicity against human HCT-116 cells incubated for 48 hrs by CCK-8 assay; type: functional, cell-based
[27] = system: MCF7; test: Cytotoxicity against human MCF7 cells incubated for 48 hrs by CCK-8 assay; type: functional, cell-based
[28] = system: A549; test: Cytotoxicity against human A549 cells incubated for 48 hrs by CCK-8 assay; type: functional, cell-based
[29] = system: HUVEC; test: Cytotoxicity against HUVEC cells incubated for 48 hrs by CCK-8 assay; type: toxicity, cell-based; conditions: human

Row | SMILES | MIC [1] [µg/mL] | MIC [2] [µg/mL] | MIC [3] [µg/mL] | MIC [4] [µg/mL] | MIC [5] [µg/mL] | MIC [6] [µg/mL] | MIC [7] [µg/mL] | MIC [8] [µg/mL] | MIC [9] [µg/mL] | MIC [10] [µg/mL] | MIC [12] [µg/mL] | MIC [13] [µg/mL] | MIC [14] [µg/mL] | MIC [15] [µg/mL] | MIC [16] [µg/mL] | MIC [17] [µg/mL] | MIC [18] [µg/mL] | MIC [19] [µg/mL] | MIC [20] [µg/mL] | MIC [21] [µg/mL] | further results
1 | COc1c(Cl)c(O)c(Cl)c2c1C(=O)O[C@H](C)C2 | > 128 | > 128 | > 128 | > 128 | > 128 | > 128 | > 128 | > 128 | > 128 | > 128 | > 128 | > 128 | > 128 | > 128 | > 128 | > 128 | > 128 | > 128 | > 128 | > 128 | MIC [11]: > 128 µg/mL
2 | CCCc1c(Cl)c(OC)cc2c1Oc1c(Cl)c(O)c(Cl)c(CCC)c1C(=O)O2 | 4 (≈ 8.97 µM) | 2 (≈ 4.49 µM) | 2 (≈ 4.49 µM) | 2 (≈ 4.49 µM) | 2 (≈ 4.49 µM) | 4 (≈ 8.97 µM) | 4 (≈ 8.97 µM) | 2 (≈ 4.49 µM) | 2 (≈ 4.49 µM) | 4 (≈ 8.97 µM) | 1 (≈ 2.24 µM) | 0.5 (≈ 1.12 µM) | 4 (≈ 8.97 µM) | 0.5 (≈ 1.12 µM) | 8 (≈ 17.9 µM) | 2 (≈ 4.49 µM) | 2 (≈ 4.49 µM) | 2 (≈ 4.49 µM) | 4 (≈ 8.97 µM) | 2 (≈ 4.49 µM) | MIC [11]: 0.5 µg/mL (≈ 1.12 µM)
3 | CCCc1c(O)c(Oc2c(Cl)c(O)c(Cl)c3c2C(=O)O[C@H](C)C3)cc(OC)c1Cl | 8 (≈ 17.3 µM) | 16 (≈ 34.7 µM) | 16 (≈ 34.7 µM) | 8 (≈ 17.3 µM) | 8 (≈ 17.3 µM) | 16 (≈ 34.7 µM) | 16 (≈ 34.7 µM) | 16 (≈ 34.7 µM) | 32 (≈ 69.3 µM) | 32 (≈ 69.3 µM) | 8 (≈ 17.3 µM) | 8 (≈ 17.3 µM) | 32 (≈ 69.3 µM) | 8 (≈ 17.3 µM) | 16 (≈ 34.7 µM) | 16 (≈ 34.7 µM) | 16 (≈ 34.7 µM) | 16 (≈ 34.7 µM) | 16 (≈ 34.7 µM) | 8 (≈ 17.3 µM) | Activity [22]: inactive; Activity [23]: inactive; MIC [11]: 16 µg/mL (≈ 34.7 µM); Activity [24]: Non-Toxic; Activity [25]: inactive; Activity [26]: inactive; Activity [27]: inactive; Activity [28]: inactive; Activity [29]: Non-Toxic
4 | CCCc1c(Cl)c(OC)c(Cl)c2c1OC(=O)c1c(CCC)c(Cl)c(O)c(Cl)c1O2 | 32 (≈ 66.6 µM) | 8 (≈ 16.7 µM) | 8 (≈ 16.7 µM) | 8 (≈ 16.7 µM) | 16 (≈ 33.3 µM) | 8 (≈ 16.7 µM) | 8 (≈ 16.7 µM) | 8 (≈ 16.7 µM) | 16 (≈ 33.3 µM) | 4 (≈ 8.33 µM) | 1 (≈ 2.08 µM) | 1 (≈ 2.08 µM) | 4 (≈ 8.33 µM) | 0.5 (≈ 1.04 µM) | 8 (≈ 16.7 µM) | 2 (≈ 4.17 µM) | 4 (≈ 8.33 µM) | 16 (≈ 33.3 µM) | 4 (≈ 8.33 µM) | 8 (≈ 16.7 µM) | MIC [11]: 2 µg/mL (≈ 4.17 µM)
5 | CCCc1c(Cl)c(O)cc2c1Oc1cc(O)c(Cl)c(CCC)c1C(=O)O2 | 4 (≈ 10.1 µM) | 4 (≈ 10.1 µM) | 4 (≈ 10.1 µM) | 4 (≈ 10.1 µM) | 2 (≈ 5.03 µM) | 2 (≈ 5.03 µM) | 4 (≈ 10.1 µM) | 4 (≈ 10.1 µM) | 8 (≈ 20.1 µM) | 8 (≈ 20.1 µM) | 8 (≈ 20.1 µM) | 4 (≈ 10.1 µM) | 16 (≈ 40.3 µM) | 1 (≈ 2.52 µM) | 32 (≈ 80.6 µM) | 8 (≈ 20.1 µM) | 16 (≈ 40.3 µM) | 8 (≈ 20.1 µM) | 8 (≈ 20.1 µM) | 4 (≈ 10.1 µM) | MIC [11]: 2 µg/mL (≈ 5.03 µM)
6 | CC1(C)S[C@@H]2[C@H](NC(=O)[C@H](N)c3ccccc3)C(=O)N2[C@H]1C(=O)O [AMPICILLIN] | 1 (≈ 2.86 µM) | 64 (≈ 183 µM) | 4 (≈ 11.4 µM) | – | 4 (≈ 11.4 µM) | 8 (≈ 22.9 µM) | 4 (≈ 11.4 µM) | – | 1 (≈ 2.86 µM) | – | 0.13 (≈ 0.372 µM) | > 64 | > 64 | 0.125 (≈ 0.358 µM) | > 64 | 8 (≈ 22.9 µM) | > 64 | > 64 | 64 (≈ 183 µM) | 32 (≈ 91.6 µM) | –
